Laboratory results taken from ChEMBL document CHEMBL1909046, “DrugMatrix in vitro pharmacology data”.
pIC50: −log10 of the molar value.

Assays:
[1] = biological target: Beta-2 adrenergic receptor (Homo sapiens, UniProt P07550); assay: DRUGMATRIX: Adrenergic beta2 radioligand binding (ligand: [3H] CGP-12177); type: cell membranes, CHO, Membrane; conditions: cho; Not Active = under 50% inhibition at 10 µM
[2] = DRUGMATRIX: Atrial Natriuretic Factor (ANF) radioligand binding (ligand: [125I] ANF (rat)); type: cell membranes, Cavia porcellus, Dunkin-Hartley, Adrenal gland, Membrane; conditions: Not Active = under 50% inhibition at 10 µM
[3] = biological target: T1, Calcitonin receptor (Homo sapiens, UniProt P30988); type: cell membranes, Membrane; conditions: t47d; note: in other assays of this panel Not Active means under 50% inhibition at 10 µM
T1 sequence (P30988 whole entry): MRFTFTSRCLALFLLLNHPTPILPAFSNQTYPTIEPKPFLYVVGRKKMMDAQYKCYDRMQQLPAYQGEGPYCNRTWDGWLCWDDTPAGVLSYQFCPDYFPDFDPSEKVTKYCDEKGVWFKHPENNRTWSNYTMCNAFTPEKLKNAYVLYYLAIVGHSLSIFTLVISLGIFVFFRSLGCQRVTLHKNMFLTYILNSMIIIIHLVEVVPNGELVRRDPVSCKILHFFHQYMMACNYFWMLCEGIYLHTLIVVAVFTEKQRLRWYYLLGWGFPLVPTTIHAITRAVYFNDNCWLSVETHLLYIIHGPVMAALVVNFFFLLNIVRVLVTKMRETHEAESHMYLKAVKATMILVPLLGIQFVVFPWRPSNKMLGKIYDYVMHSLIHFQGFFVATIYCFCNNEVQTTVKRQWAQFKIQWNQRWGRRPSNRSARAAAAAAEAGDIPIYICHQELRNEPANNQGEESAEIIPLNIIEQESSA

[4] = biological target: Vasopressin V1a receptor (Homo sapiens, UniProt P37288); type: cell membranes, Membrane; conditions: hek293; note: in other assays of this panel Not Active means under 50% inhibition at 10 µM
[5] = biological target: Nitric oxide synthase 1 (Rattus norvegicus, UniProt P29476); type: tissue-based, Cerebellum; note: in other assays of this panel Not Active means under 50% inhibition at 10 µM
[6] = DRUGMATRIX: Phorbol Ester radioligand binding (ligand: [3H] PDBu); type: cell membranes, Mus musculus, ICR, Brain, Membrane; conditions: Not Active = under 50% inhibition at 10 µM
[7] = biological target: Mitogen-activated protein kinase 1 (Homo sapiens, UniProt P28482); assay: DRUGMATRIX: Protein Serine/Threonine Kinase, ERK2 enzyme inhibition (substrate: Myelin Basic Protein); design: species or system Escherichia coli; conditions: Not Active = under 50% inhibition at 10 µM
[8] = biological target: Acetylcholinesterase (Homo sapiens, UniProt P22303); assay: DRUGMATRIX: Acetylcholinesterase enzyme inhibition (substrate: acetylthiocholine); type: cell-based, HEK293; conditions: Not Active = under 50% inhibition at 10 µM; for IC50: hek293
Chain of Acetylcholinesterase (P22303 whole entry): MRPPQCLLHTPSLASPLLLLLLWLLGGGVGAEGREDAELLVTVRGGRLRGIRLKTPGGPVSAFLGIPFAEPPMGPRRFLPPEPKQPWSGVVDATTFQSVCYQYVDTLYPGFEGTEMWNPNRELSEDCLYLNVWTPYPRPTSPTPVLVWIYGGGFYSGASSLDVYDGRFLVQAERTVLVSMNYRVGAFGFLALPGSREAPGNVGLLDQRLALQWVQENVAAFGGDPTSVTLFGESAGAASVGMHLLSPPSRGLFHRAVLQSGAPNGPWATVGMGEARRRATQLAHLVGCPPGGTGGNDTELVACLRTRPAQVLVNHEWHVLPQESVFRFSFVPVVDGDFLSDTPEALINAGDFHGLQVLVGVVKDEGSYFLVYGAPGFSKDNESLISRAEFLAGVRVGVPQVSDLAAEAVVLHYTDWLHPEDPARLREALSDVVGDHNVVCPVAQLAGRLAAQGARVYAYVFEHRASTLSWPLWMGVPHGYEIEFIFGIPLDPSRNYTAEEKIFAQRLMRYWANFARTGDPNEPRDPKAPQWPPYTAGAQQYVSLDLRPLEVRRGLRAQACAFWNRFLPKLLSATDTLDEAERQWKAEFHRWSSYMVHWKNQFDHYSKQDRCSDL

Chain of Vasopressin V1a receptor (P37288 whole entry): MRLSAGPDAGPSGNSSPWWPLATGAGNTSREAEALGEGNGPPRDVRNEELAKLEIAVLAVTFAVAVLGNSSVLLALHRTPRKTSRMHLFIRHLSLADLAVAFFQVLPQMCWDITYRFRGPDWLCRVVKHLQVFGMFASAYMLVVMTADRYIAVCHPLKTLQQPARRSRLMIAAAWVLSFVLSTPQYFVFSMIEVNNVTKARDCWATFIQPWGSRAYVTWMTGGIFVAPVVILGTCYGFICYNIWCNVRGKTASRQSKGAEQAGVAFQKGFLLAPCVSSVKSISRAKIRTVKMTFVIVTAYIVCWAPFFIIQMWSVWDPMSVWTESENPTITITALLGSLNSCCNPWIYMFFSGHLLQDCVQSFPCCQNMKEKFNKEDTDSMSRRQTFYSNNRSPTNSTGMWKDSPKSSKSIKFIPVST
Chain of Mitogen-activated protein kinase 1 (P28482 whole entry): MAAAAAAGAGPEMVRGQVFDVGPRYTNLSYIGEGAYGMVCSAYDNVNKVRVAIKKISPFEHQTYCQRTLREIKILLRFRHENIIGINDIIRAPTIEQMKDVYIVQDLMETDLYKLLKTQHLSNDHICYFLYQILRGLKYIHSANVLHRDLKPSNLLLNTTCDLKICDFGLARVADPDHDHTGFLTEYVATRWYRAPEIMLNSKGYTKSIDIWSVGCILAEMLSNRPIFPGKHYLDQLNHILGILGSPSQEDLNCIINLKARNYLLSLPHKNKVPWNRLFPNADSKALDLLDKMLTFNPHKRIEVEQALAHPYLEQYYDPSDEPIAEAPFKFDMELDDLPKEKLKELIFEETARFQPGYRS
Chain of Nitric oxide synthase 1 (P29476 whole entry): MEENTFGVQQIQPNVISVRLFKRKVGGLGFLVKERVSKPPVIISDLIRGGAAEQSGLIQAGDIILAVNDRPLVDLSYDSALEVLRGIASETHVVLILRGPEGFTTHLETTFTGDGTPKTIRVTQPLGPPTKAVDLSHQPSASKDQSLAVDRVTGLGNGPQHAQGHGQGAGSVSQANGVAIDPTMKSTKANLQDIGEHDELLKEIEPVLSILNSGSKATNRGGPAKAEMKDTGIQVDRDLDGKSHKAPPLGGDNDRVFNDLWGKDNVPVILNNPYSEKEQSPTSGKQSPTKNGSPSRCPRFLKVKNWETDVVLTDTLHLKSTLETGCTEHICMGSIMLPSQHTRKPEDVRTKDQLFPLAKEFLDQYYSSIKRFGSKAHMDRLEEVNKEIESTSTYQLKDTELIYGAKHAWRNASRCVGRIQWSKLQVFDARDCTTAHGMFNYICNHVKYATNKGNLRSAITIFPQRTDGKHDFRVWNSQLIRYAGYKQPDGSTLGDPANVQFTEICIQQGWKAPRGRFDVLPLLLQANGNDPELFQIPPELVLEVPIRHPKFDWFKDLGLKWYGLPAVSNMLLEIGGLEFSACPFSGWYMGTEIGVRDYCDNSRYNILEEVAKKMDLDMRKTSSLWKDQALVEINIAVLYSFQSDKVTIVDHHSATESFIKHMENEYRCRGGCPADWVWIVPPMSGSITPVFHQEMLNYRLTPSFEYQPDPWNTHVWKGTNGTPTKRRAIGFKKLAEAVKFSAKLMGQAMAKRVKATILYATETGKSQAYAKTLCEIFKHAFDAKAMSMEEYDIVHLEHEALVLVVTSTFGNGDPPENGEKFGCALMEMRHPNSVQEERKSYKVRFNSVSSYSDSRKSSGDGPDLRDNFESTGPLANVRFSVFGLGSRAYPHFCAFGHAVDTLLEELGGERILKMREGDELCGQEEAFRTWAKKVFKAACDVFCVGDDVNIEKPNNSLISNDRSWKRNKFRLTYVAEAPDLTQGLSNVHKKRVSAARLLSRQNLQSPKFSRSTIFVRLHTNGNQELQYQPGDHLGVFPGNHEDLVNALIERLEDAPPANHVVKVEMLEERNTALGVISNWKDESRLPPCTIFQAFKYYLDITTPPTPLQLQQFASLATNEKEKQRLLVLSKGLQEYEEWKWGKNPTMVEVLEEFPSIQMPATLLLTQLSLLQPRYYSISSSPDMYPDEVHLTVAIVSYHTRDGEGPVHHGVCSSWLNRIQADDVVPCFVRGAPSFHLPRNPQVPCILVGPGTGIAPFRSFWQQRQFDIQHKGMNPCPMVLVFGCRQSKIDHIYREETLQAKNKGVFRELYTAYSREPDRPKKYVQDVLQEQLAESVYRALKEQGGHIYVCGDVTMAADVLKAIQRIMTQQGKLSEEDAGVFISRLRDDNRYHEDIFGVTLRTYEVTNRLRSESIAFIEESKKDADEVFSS
Chain of Beta-2 adrenergic receptor (P07550 whole entry): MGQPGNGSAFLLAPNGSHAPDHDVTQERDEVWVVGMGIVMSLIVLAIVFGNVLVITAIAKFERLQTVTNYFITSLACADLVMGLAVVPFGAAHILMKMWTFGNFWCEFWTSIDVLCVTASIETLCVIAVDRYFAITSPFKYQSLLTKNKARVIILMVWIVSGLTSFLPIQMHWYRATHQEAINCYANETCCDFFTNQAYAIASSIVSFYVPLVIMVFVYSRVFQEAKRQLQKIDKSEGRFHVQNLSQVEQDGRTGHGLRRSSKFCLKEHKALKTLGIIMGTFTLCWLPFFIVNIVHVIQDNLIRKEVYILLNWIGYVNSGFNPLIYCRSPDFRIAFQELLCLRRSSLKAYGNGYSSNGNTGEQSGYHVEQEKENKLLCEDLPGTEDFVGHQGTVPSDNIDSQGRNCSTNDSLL

Compound	IC50 [1]	IC50 [2]	Ki [2]	IC50 [3]	IC50 [4]	IC50 [5]	IC50 [6]	Ki [6]	IC50 [7]	IC50 [8]	pIC50 ([7]; read-out: IC50)	pIC50 ([8]; read-out: IC50)
COc1cc(N)nc2[nH]c(-c3ccc(F)cc3)c(-c3ccncc3)c12	Not Active	Not Active	Not Active	Not Active	Not Active	Not Active	Not Active	Not Active	Not Active	Not Active	–	–
CNS(=O)(=O)Cc1ccc2[nH]cc(CCN(C)C)c2c1	Not Active	Not Active	Not Active	Not Active	Not Active	Not Active	Not Active	Not Active	Not Active	Not Active	–	–
CCCc1nn(C)c2c(=O)[nH]c(-c3cc(S(=O)(=O)N4CCN(C)CC4)ccc3OCC)nc12	Not Active	Not Active	Not Active	Not Active	Not Active	Not Active	Not Active	Not Active	Not Active	Not Active	–	–
COc1ccc(/C=C/C(=O)Nc2ccccc2C(=O)O)cc1OC	Not Active	Not Active	Not Active	Not Active	Not Active	Not Active	Not Active	Not Active	Not Active	Not Active	–	–
CCOC(N)=O	Not Active	Not Active	Not Active	Not Active	Not Active	Not Active	Not Active	Not Active	Not Active	Not Active	–	–
CC(=O)Nc1nnc(S(N)(=O)=O)s1 [ACETAZOLAMIDE]	Not Active	–	–	Not Active	Not Active	Not Active	–	–	Not Active	Not Active	–	–
O=c1[nH]c2ccccc2n1CCCN1CCC(n2c(=O)[nH]c3cc(Cl)ccc32)CC1 [DOMPERIDONE]	Not Active	–	–	Not Active	Not Active	Not Active	–	–	Not Active	Not Active	–	–
CC1=C(CC(=O)O)c2cc(F)ccc2/C1=C\c1ccc(S(C)(=O)=O)cc1 [EXISULIND]	Not Active	Not Active	Not Active	Not Active	Not Active	Not Active	Not Active	Not Active	–	Not Active	4.86	–
CC(C)OC(=O)C(C)(C)Oc1ccc(C(=O)c2ccc(Cl)cc2)cc1 [FENOFIBRATE]	Not Active	–	–	Not Active	Not Active	Not Active	–	–	Not Active	–	–	4.81
OCCN1CCN(CCCN2c3ccccc3Sc3ccc(C(F)(F)F)cc32)CC1 [FLUPHENAZINE]	Not Active	–	–	Not Active	Not Active	Not Active	–	–	Not Active	Not Active	–	–
CN1C2CCCC1CC(NC(=O)c1nn(C)c3ccccc13)C2 (stereo unspecified) [GRANISETRON]	Not Active	–	–	Not Active	Not Active	Not Active	–	–	Not Active	Not Active	–	–
Nc1nc2c(c(=O)[nH]1)N(C=O)C(CNc1ccc(C(=O)N[C@@H](CCC(=O)O)C(=O)O)cc1)CN2 (stereo partly specified) [LEUCOVORIN]	Not Active	Not Active	Not Active	Not Active	Not Active	Not Active	Not Active	Not Active	–	Not Active	–	–
C[C@@H](O)[C@H]1C(=O)N2C(C(=O)O)=C(S[C@@H]3CN[C@H](C(=O)N(C)C)C3)[C@H](C)[C@H]12 [MEROPENEM]	Not Active	Not Active	Not Active	Not Active	Not Active	Not Active	Not Active	Not Active	Not Active	Not Active	–	–
CC[C@@H](CO)NC(=O)[C@@H]1C=C2c3cccc4c3c(cn4C)C[C@H]2N(C)C1 [METHYSERGIDE]	Not Active	–	–	Not Active	Not Active	Not Active	–	–	Not Active	Not Active	–	–
CCN(CC)CC#CCOC(=O)C(O)(c1ccccc1)C1CCCCC1 (stereo unspecified) [OXYBUTYNIN]	Not Active	–	–	Not Active	Not Active	Not Active	–	–	Not Active	Not Active	–	–
O=P(O)(O)C(O)(Cc1cccnc1)P(=O)(O)O [RISEDRONIC ACID]	Not Active	Not Active	Not Active	Not Active	Not Active	Not Active	Not Active	Not Active	Not Active	Not Active	–	–
CN(CCOc1ccc(CC2SC(=O)NC2=O)cc1)c1ccccn1 (stereo unspecified) [ROSIGLITAZONE]	Not Active	Not Active	Not Active	Not Active	Not Active	Not Active	Not Active	Not Active	Not Active	Not Active	–	–
C=C(C)[C@H]1Cc2c(ccc3c2O[C@@H]2COc4cc(OC)c(OC)cc4[C@@H]2C3=O)O1 [ROTENONE]	Not Active	Not Active	Not Active	Not Active	Not Active	Not Active	Not Active	Not Active	Not Active	Not Active	–	–
C#CCN(C)[C@H](C)Cc1ccccc1 [SELEGILINE]	Not Active	Not Active	Not Active	Not Active	Not Active	Not Active	Not Active	Not Active	Not Active	Not Active	–	–
CO[C@H]1C[C@@H]2CC[C@@H](C)[C@@](O)(O2)C(=O)C(=O)N2CCCC[C@H]2C(=O)O[C@H]([C@H](C)C[C@@H]2CC[C@@H](O)[C@H](OC)C2)CC(=O)[C@H](C)/C=C(\C)[C@@H](O)[C@@H](OC)C(=O)[C@H](C)C[C@H](C)/C=C/C=C/C=C/1C [SIROLIMUS]	Not Active	Not Active	Not Active	Not Active	Not Active	Not Active	Not Active	Not Active	Not Active	Not Active	–	–
CN[C@@H]1[C@H](O)[C@H](NC)[C@H]2O[C@@]3(O)C(=O)C[C@@H](C)O[C@H]3O[C@@H]2[C@H]1O [SPECTINOMYCIN]	Not Active	Not Active	Not Active	Not Active	Not Active	Not Active	Not Active	Not Active	Not Active	Not Active	–	–
Nc1ccc(S(=O)(=O)Nc2ncccn2)cc1 [SULFADIAZINE]	Not Active	Not Active	Not Active	Not Active	Not Active	Not Active	Not Active	Not Active	Not Active	Not Active	–	–
COc1ncnc(NS(=O)(=O)c2ccc(N)cc2)c1OC [SULFADOXINE]	Not Active	Not Active	Not Active	Not Active	Not Active	Not Active	Not Active	Not Active	Not Active	Not Active	–	–
Nc1ccc(S(=O)(=O)Nc2nccs2)cc1 [SULFATHIAZOLE]	Not Active	Not Active	Not Active	Not Active	Not Active	Not Active	Not Active	Not Active	Not Active	Not Active	–	–
C[C@]12CC[C@H]3[C@@H](CCC4=CC(=O)CC[C@@]43C)[C@@H]1CC[C@@H]2O [TESTOSTERONE]	Not Active	Not Active	Not Active	Not Active	Not Active	Not Active	Not Active	Not Active	Not Active	Not Active	–	–
CC(C)(C)NC[C@H](O)COc1nsnc1N1CCOCC1 [TIMOLOL]	–	Not Active	Not Active	Not Active	Not Active	Not Active	Not Active	Not Active	Not Active	Not Active	–	–
CCS(=O)(=O)CCn1c([N+](=O)[O-])cnc1C [TINIDAZOLE]	Not Active	Not Active	Not Active	Not Active	Not Active	Not Active	Not Active	Not Active	Not Active	Not Active	–	–
O=c1n(CCCN2CCN(c3cccc(Cl)c3)CC2)nc2ccccn12 [TRAZODONE]	Not Active	–	–	Not Active	Not Active	Not Active	–	–	Not Active	Not Active	–	–
